# Source: US20170239289A1, “TREATMENT OF INFLAMMATION, RESPIRATORY TRACT INFECTIONS AND CYSTIC FIBROSIS” (Advanced Inhalation Therapies (AIT) Ltd., priority 2014, published 2017)
# “Also recorded” adds a separate entry of the source.
# What was measured:
# [1] = tested on: human subjects diagnosed with acute bronchiolitis; experiment: Example 3: randomized bronchiolitis study, infants 2-12 months; 160 ppm NO 30 min 5x daily up to 5 days plus O2 vs O2 alone; safety and tolerability; type: in vivo
# Text: Eligible subjects were randomized (1:1) to receive intermittent NO and standard treatment with O2 (hereafter referred to as NO treatment) or standard treatment with O2 (hereafter referred to as standard treatment) alone for a treatment period of up to 5 days. During treatment, MetHb and O2 saturation levels were continuously monitored using a dedicated monitor.
# In addition to standard supportive O2 treatment which was initiated prior to randomization, subjects in the NO group were given five 30 minute inhalations per day of 160 ppm NO, at intervals of 3 to 4 hours, until subject improvement led to a physician decision of fit to discharge, to a maximum of 25 inhalations over 5 consecutive days. Inhalations were administered via hospital face masks (Hospiltak, Unomedical Inc).
# All subjects in the control group were managed with standard supportive O2 treatment in the same way as the active treatment group, but without actual NO administration.
# Methemoglobin and O2 saturation levels were also continuously monitored using a dedicated monitor. In the event of MetHb>5% or O2 saturation less than 89%, treatment was temporarily discontinued, and measurement repeated 30 minutes later. If value(s) had returned to within the safety threshold, the next inhalation was started according to protocol. In any case of a second episode of MeHb greater than 5%, study treatment was to be permanently discontinued.
# Primary Endpoints—Safety and Tolerability: • Safety: • Determine the MetHb percentage associated with inhaled NO • Determine AEs associated with inhaled NO • Tolerability: • Proportion of subjects (%) who prematurely discontinued the study or study treatment for any reason • Proportion of subjects (%) who prematurely discontinued the study treatment due to AEs
# [2] = tested on: human subjects diagnosed with cystic fibrosis; experiment: Example 4: lung function indices by spirometry; type: in vivo
# Description: (§1) In addition to their standard care, subjects were administered three 30-minute inhalations per day of 160 ppm NO (with O2/air) for 10 working days (i.e., 5 days on treatment, 2 days off treatment, 5 days on treatment, for a total of 10 treatment days and 30 inhalations).
# (§2) Secondary Endpoints—Efficacy: • Comparison of FEV1 improvement before and after NO treatment Observational Endpoints: • To determine the reduction in bacterial and fungal sputum load during each week of NO treatment compared to bacterial sputum load before NO treatment • Assess the improvement of lung function indices during and after NO intermittent inhalation treatment as determined by spirometry (i.e., FVC, FEV1, FEV1/FVC, forced expiratory flow 25% to 75% (FEF 25-75)) • Evaluate C-reactive protein (CRP) levels over time • Number of subjects with study drug related bleeding at any time point
# The Signed rank test for two means was applied for analyzing changes from baseline in continuous parameters: • FEV1% • Specific bacterial colonization (i.e., S. aureus, P. aeruginosa)
# [3] = tested on: methicillin-sensitive S. aureus (MSSA); experiment: Example 1: microbial density in sputum (CFU) during NO inhalation; type: in vivo, Staphylococcus aureus; details: Patient 3 (CFSCH03)
# Description: (§3) NO was administered via inhalation to nine clinically stable human subjects diagnosed with, or suffering from CF from two medical centers. Patients received three daily 30-minute treatments of 160 ppm NO with at least 3.5 hours between treatments, for 5 days per week over a two-weeks time period.
# (§4) Preliminary efficacy measures included determination of microbial density in sputum and measurements of forced exhaled volume at 1 second (FEV1). Inflammation associated with C-reactive protein (CRP) levels was assessed as a secondary outcome measure. Other inflammation biomarkers, such as interleukins, were also monitored (data not shown).
# (§5) Bacterial load was measured for exemplary, non-limiting selection of species that included, P. alcaligenes, methicillin-sensitive Staphylococcus aureus (MSSA), Achromobacter spp., A. fumigates, non-mucoid P. aeruginosa and mucoid P. aeruginosa.
# S. aureus (MSSA) = experiment: Example 4: bacterial and fungal sputum load; type: in vivo, Staphylococcus aureus
# Description: as §1, §2
# Results of the bacterial and fungal sputum load analysis were highly variable, and due to limitations of the sampling and testing technique, must be interpreted with caution. Microbiology results were recorded from Day 1 to end of follow-up, for all samples taken during the study. In order for NO therapy to be efficient, a minimal exposure of the microbial population to NO for the whole duration of the study is required. […] Thus, data was analyzed only for cultures with positive results on Day 1. Furthermore, samples from 2 subjects (SO-01 and SO-02) were not analyzed by the central laboratory. A summary of the bacterial and fungal sputum results at Day 1 and Day 9 is presented according to subject in Table 18.
# P. alcaligenes = experiment: Example 1: microbial density in sputum (CFU) during NO inhalation; type: in vivo; details: Patient 1 (CFSCH01), by Day 9
# Description: as §3, §4, §5
# C-reactive protein (CRP) = experiment: Example 1: CRP levels in CF subjects treated with 160 ppm NO; type: in vivo, human; details: three subjects with baseline CRP greater than 5 mg/L
# Description: as §3, §4
# [4] = Follow-up 2 (2 weeks after Day 10), n=9
smiles,measurement,setting,value
"[N]=O [NO, nitric oxide]",Time for MetHb to approach pre-treatment levels,[1]; after end of 30 min treatment,approximately 3 hours
same,"Completed entire treatment and study duration, % of subjects",[1]; all randomized,90.5%
same,Early discontinuation of study,[1]; all randomized,(0.0%)
same,"Early discontinuation of study, withdrawal of consent",[1]; all randomized,(0.0%)
same,Early discontinuation of treatment due to AE,[1]; all randomized,(4.8%)^(1)
same,Early discontinuation of treatment due to SAE,[1]; all randomized,(0.0%)
same,Early discontinuation of treatment only,[1]; all randomized,(9.5%)
same,"Early discontinuation of treatment, Physician/Investigator decision",[1]; all randomized,(4.8%)^(3)
same,Subjects that discontinued study treatment or discontinued the study,[1]; all randomized,(9.5%)
same,"Completed entire treatment and study duration, % of subjects","[1]; all randomized, listed as NO and Standard Treatment (O2)",(90.5%)
same,Subjects with any MetHb measurement greater than 5%,[1]; during the study treatment period,28.6%
same,Serious adverse events reported by,"[1]; human, in vivo, 160 ppm",4 subjects
same,Subjects reporting at least 1 AE,"[1]; human, in vivo, 160 ppm",47.6%
same,Deaths during the study,[1]; in vivo,no deaths
same,maximum MetHb,[1]; one subject (Subject 44),5.6%
same,Cumulative effect on MetHb levels,[1]; over the study treatment period,no “cumulative” effect; also recorded: no cumulative effect
same,"FEF 25-75% Absolute, Mean","[2]; Day 1, n=9",30.000%
same,"FEF 25-75% Absolute, Median","[2]; Day 1, n=9",27.000%
same,"FEF 25-75 Absolute, Mean","[2]; Day 1, n=9",1.151 L/s
same,"FEF 25-75 Absolute, Median","[2]; Day 1, n=9",1.090 L/s
same,"FEV1/FVC, Mean","[2]; Day 1, n=9",68.778%
same,"FEV1/FVC, Median","[2]; Day 1, n=9",69.000%
same,"FEV1 Absolute, Mean","[2]; Day 1, n=9",1.871 L
same,"FEV1 Absolute, Median","[2]; Day 1, n=9",1.700 L
same,"FEV1 Predicted, Mean","[2]; Day 1, n=9",62.222%
same,"FEV1 Predicted, Median","[2]; Day 1, n=9",64.000%
same,"FVC Absolute, Mean","[2]; Day 1, n=9",2.756 L
same,"FVC Absolute, Median","[2]; Day 1, n=9",2.360 L
same,"FVC Predicted, Mean","[2]; Day 1, n=9",79.889%
same,"FVC Predicted, Median","[2]; Day 1, n=9",90.000%
same,"FEF 25-75% Absolute, Mean","[2]; Day 10, n=9",28.111%
same,"FEF 25-75% Absolute, Median","[2]; Day 10, n=9",22.000%
same,"FEF 25-75 Absolute, Mean","[2]; Day 10, n=9",1.090 L/s
same,"FEF 25-75 Absolute, Median","[2]; Day 10, n=9",0.880 L/s
same,"FEV1/FVC, Mean","[2]; Day 10, n=9",65.111%
same,"FEV1/FVC, Median","[2]; Day 10, n=9",66.000%
same,"FEV1 Absolute, Mean","[2]; Day 10, n=9",1.833 L
same,"FEV1 Absolute, Median","[2]; Day 10, n=9",1.610 L
same,"FEV1 Predicted, Mean","[2]; Day 10, n=9",60.444%
same,"FEV1 Predicted, Median","[2]; Day 10, n=9",59.000%
same,"FVC Absolute, Mean","[2]; Day 10, n=9",2.759 L
same,"FVC Absolute, Median","[2]; Day 10, n=9",2.340 L
same,"FVC Predicted, Mean","[2]; Day 10, n=9",79.556%
same,"FVC Predicted, Median","[2]; Day 10, n=9",84.000%
same,"FEF 25-75% Absolute, Mean",[2]; [4],29.667%
same,"FEF 25-75% Absolute, Median",[2]; [4],23.000%
same,"FEF 25-75 Absolute, Mean",[2]; [4],1.118 L/s
same,"FEF 25-75 Absolute, Median",[2]; [4],0.910 L/s
same,"FEV1/FVC, Mean",[2]; [4],66.000%
same,"FEV1/FVC, Median",[2]; [4],65.000%
same,"FEV1 Absolute, Mean",[2]; [4],1.852 L
same,"FEV1 Absolute, Median",[2]; [4],1.630 L
same,"FEV1 Predicted, Mean",[2]; [4],62.889%
same,"FEV1 Predicted, Median",[2]; [4],60.000%
same,"FVC Absolute, Mean",[2]; [4],2.786 L
same,"FVC Absolute, Median",[2]; [4],2.390 L
same,"FVC Predicted, Mean",[2]; [4],81.889%
same,"FVC Predicted, Median",[2]; [4],85.000%
same,mean (SD) FEV1 change,"[2]; from Day 1 to Day 10, N=9, p=0.992",−0.11%
same,Lung function indices over time,[2]; throughout the study,no clinically significant changes
same,MSSA CFU counts,[3],elimination
same,"S. aureus (MSSA), % change from Day 1 to Day 9",S. aureus (MSSA); Subject SC-03,−100.0%
same,S. aureus (MSSA) sputum load,"S. aureus (MSSA); Subject SC-03, Day 1",29.5 CFU/mL × 10^−4
same,S. aureus (MSSA) sputum load,"S. aureus (MSSA); Subject SC-03, Day 9",0 CFU/mL × 10^−4
same,"S. aureus (MSSA), % change from Day 1 to Day 9",S. aureus (MSSA); Subject SO03,+27.6%
same,S. aureus (MSSA) sputum load,"S. aureus (MSSA); Subject SO03, Day 1",67.0 CFU/mL × 10^−4
same,S. aureus (MSSA) sputum load,"S. aureus (MSSA); Subject SO03, Day 9",85.5 CFU/mL × 10^−4
same,decrease in P. alcaligenes CFUs,P. alcaligenes,2 log
same,reduction in CRP levels after treatment,C-reactive protein (CRP),40-60%
